Here are results for 20 molecules from patent publication US10479780B2, “Aminopyrazole derivatives” (Chugai Seiyaku Kabushiki Kaisha, priority 2015, dated 2019).

Where two headings read alike, the source gives them in different places.

Common to all, as to assay type: biochemical
One assay concerns the target T1, human Lck enzyme (Homo sapiens, UniProt P06239).
T1 construct: purchased Carna Biosciences, Inc. 08-170
Kind of assay: Lck enzyme inhibitory activity (time-resolved fluorometry, biotinylated peptide phosphorylation). The following applies: read-out: LCK_IC50. The gist of the method: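 Readout pairs a europium cryptate-labelled anti-phosphotyrosine antibody with XL665-streptavidin, measured by time-resolved fluorescence. IC50 derived from percent inhibition against untreated controls.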

For another assay, the target named is T2, human Yes1 enzyme (Homo sapiens, UniProt P07947).
T2 construct: made in house
The assay can be described thus: Yes1 enzyme inhibitory activity (time-resolved fluorometry, biotinylated peptide phosphorylation). The note with it: read-out: YES_IC50. The gist of the method: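 Inhibition was expressed against a compound-free control to give IC50, using TR-FRET read-out (Eu-cryptate anti-pTyr antibody, streptavidin-XL665).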

A further assay concerns the target T3, human Src enzyme (Homo sapiens, UniProt P12931).
T3 construct: purchased Carna Biosciences, Inc. 08-173
Kind of assay: Src enzyme inhibitory activity (time-resolved fluorometry, biotinylated peptide phosphorylation). The note with it: read-out: SRC_IC50. The gist of the method: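 Compounds were tested for blocking tyrosine phosphorylation of a biotinylated peptide substrate by recombinant human Src. Phosphorylated product was quantified by time-resolved fluorometry using europium cryptate and XL665 conjugates, and IC50 was calculated against the compound-free control.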

The mark [1] stands for this setting: biotinylated peptide phosphorylation.

T3 sequence (P12931 whole entry): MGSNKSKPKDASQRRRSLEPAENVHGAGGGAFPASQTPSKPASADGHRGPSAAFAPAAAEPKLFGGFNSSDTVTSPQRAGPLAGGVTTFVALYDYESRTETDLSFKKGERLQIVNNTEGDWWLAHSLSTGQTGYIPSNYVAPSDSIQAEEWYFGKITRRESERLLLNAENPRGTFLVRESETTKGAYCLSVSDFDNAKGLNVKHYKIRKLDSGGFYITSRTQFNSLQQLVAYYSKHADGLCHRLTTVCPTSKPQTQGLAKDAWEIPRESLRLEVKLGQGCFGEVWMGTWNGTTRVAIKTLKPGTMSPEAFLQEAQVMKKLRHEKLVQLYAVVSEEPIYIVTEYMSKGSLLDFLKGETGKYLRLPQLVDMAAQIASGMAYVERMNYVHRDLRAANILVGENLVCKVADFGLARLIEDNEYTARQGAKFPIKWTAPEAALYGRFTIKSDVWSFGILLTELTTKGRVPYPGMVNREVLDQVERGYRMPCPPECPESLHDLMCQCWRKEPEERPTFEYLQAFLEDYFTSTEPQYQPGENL
T2 sequence (P07947 whole entry): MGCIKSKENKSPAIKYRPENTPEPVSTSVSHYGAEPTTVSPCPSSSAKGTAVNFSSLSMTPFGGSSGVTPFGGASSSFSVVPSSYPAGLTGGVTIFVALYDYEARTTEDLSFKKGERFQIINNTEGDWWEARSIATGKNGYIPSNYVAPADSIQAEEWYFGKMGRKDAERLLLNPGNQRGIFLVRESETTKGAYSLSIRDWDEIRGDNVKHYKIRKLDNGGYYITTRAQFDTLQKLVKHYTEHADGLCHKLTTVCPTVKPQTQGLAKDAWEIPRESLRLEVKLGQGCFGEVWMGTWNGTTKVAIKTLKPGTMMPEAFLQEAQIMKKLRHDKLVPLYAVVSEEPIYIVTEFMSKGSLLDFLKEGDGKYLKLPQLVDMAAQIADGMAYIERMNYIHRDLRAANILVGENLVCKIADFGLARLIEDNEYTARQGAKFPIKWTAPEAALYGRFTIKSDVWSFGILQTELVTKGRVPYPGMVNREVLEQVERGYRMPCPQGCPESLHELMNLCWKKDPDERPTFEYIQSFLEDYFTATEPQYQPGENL
T1 sequence (P06239 whole entry): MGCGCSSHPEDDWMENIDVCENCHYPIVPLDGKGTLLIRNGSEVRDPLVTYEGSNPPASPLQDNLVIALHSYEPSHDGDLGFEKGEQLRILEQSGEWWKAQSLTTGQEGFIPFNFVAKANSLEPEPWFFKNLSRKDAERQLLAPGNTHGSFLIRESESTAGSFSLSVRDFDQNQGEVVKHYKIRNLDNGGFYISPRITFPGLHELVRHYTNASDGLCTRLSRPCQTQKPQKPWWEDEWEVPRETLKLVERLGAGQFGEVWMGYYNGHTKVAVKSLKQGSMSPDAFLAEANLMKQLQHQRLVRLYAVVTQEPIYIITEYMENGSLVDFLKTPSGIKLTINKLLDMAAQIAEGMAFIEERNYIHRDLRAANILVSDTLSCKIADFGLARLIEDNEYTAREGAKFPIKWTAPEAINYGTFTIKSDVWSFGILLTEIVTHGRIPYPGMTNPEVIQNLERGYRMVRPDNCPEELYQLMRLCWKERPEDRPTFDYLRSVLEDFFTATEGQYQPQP

With `Cc1cc(Oc2ccccc2F)ncc1-n1ncc(C(=O)c2cc3cc(N4CCOCC4)c(N4CCCS4(=O)=O)cc3[nH]2)c1N` [Example 4-25-007, [5-amino-1-[6-(2-fluorophenoxy)-4-methylpyridin-3-yl]pyrazol-4-yl]-[6-(1,1-dioxo-1,2-thiazolidin-2-yl)-5-morpholin-4-yl-1H-indol-2-yl]methanone], the IC50 at human Lck enzyme (setting [1]) was determined as 5.2 nM; on human Yes1 enzyme (setting [1]), 1.1 nM; on human Src enzyme (setting [1]), 23 nM.
As to `CC(C)N1CCC(c2cc3[nH]c(C(=O)c4cnn(-c5ccc(Oc6cccc(F)c6F)cc5)c4N)cc3cc2F)CC1` [Example 5-1-013, [5-amino-1-[4-(2,3-difluorophenoxy)phenyl]pyrazol-4-yl]-[5-fluoro-6-(1-propan-2-ylpiperidin-4-yl)-1H-indol-2-yl]methanone], the IC50 on human Lck enzyme turned out to be 2.5 nM; at human Yes1 enzyme, 1.6 nM; at human Src enzyme, 30 nM.
As for `Cc1cc(Oc2cccc(F)c2F)ncc1-n1ncc(C(=O)c2cc3cc(F)c(NS(=O)(=O)CCCF)cc3[nH]2)c1N` [Example 4-2-022, N-[2-[5-amino-1-[6-(2,3-difluorophenoxy)-4-methylpyridin-3-yl]pyrazole-4-carbonyl]-5-fluoro-1H-indol-6-yl]-3-fluoropropane-1-sulfonamide], the IC50 was determined as 26 nM at human Lck enzyme (setting [1]), 5.4 nM on human Yes1 enzyme (setting [1]) and 140 nM on human Src enzyme (setting [1]).
`Cc1cc(-n2ncc(C(=O)c3cc4cc(OC5CCN(C(C)C)CC5)c(Br)cc4[nH]3)c2N)ccc1Oc1ccccc1F` [Example 5-1-148, [5-amino-1-[4-(2-fluorophenoxy)-3-methylphenyl]pyrazol-4-yl]-[6-bromo-5-(1-propan-2-ylpiperidin-4-yl)oxy-1H-indol-2-yl] methanone]: the IC50 at human Lck enzyme was 47 nM; at human Yes1 enzyme it was 0.57 nM; at human Src enzyme it was 180 nM.
The corresponding values for `Nc1c(C(=O)c2cc3cc(F)c(NS(=O)(=O)CCCF)cc3[nH]2)cnn1-c1ccc(Oc2ncccc2Cl)cc1Cl` [Example 5-1-037, N-[2-[5-amino-1-[2-chloro-4-(3-chloropyridin-2-yl)oxyphenyl]pyrazole-4-carbonyl]-5-fluoro-1H-indol-6-yl]-3-fluoropropane-1-sulfonamide] are 17 nM, 0.91 nM and 45 nM.
Regarding `Cc1cc2cc(C(=O)c3cnn(-c4cnc(Oc5ccccc5F)cc4C)c3N)[nH]c2cc1NS(=O)(=O)c1cncc(F)c1` [Example 5-1-494, N-[2-[5-amino-1-[6-(2-fluorophenoxy)-4-methylpyridin-3-yl]pyrazole-4-carbonyl]-5-methyl-1H-indol-6-yl]-5-fluoropyridine-3-sulfonamide], the IC50 on human Lck enzyme (setting [1]) amounted to 230 nM; on human Yes1 enzyme (setting [1]), 3 nM; on human Src enzyme (setting [1]), 430 nM.
For `Cc1cc(Oc2ccccc2F)ncc1-n1ncc(C(=O)c2cc3cc(SC(F)F)c(N4C(=O)NC(C)(C)C4=O)cc3[nH]2)c1N` [Example 5-1-359, 3-[2-[5-amino-1-[6-(2-fluorophenoxy)-4-methylpyridin-3-yl]pyrazole-4-carbonyl]-5-(difluoromethylsulfanyl)-1H-indol-6-yl]-5,5-dimethylimidazolidine-2,4-dione], the IC50 stood at 25 nM at human Lck enzyme, 6 nM at human Yes1 enzyme and 130 nM on human Src enzyme.
For `Cc1cc2cc(C(=O)c3cnn(-c4ccc(Oc5ccccc5F)cc4C)c3N)[nH]c2cc1N1C(=O)NC2(CCN(C3COC3)CC2)C1=O` [Example 5-1-391, 3-(2-(5-amino-1-(4-(2-fluorophenoxy)-2-methylphenyl)-1H-pyrazole-4-carbonyl)-5-methyl-1H-indol-6-yl)-8-(oxetan-3-yl)-1,3,8-triazaspiro[4.5]decane-2,4-dione], in that order: 5.5 nM, 1.3 nM and 11 nM.
On to `Cc1cc2cc(C(=O)c3cnn(-c4c(C)cc(Oc5ccccc5)cc4F)c3N)[nH]c2cc1NS(C)(=O)=O` [Example 4-2-060, N-[2-[5-amino-1-(2-fluoro-6-methyl-4-phenoxyphenyl)pyrazole-4-carbonyl]-5-methyl-1H-indol-6-yl]methanesulfonamide], for which the IC50 stood at 15 nM at human Lck enzyme (setting [1]), 2 nM at human Yes1 enzyme (setting [1]) and 58 nM on human Src enzyme (setting [1]).
Consider `Cc1cc(-n2ncc(C(=O)c3cc4cc(OCC(F)F)c(N)cc4[nH]3)c2N)ccc1Oc1ccccc1F` [Example 5-1-162, [6-amino-5-(2,2-difluoroethoxy)-1H-indol-2-yl]-[5-amino-1-[4-(2-fluorophenoxy)-3-methylphenyl]pyrazol-4-yl]methanone], for which the values for the IC50 on human Lck enzyme, on human Yes1 enzyme and on human Src enzyme were 120 nM, 2.1 nM and 480 nM, respectively.
Take `Cc1cc(Oc2ccccc2F)cc(F)c1-n1ncc(C(=O)c2cc3cc(OC(F)F)c(C4CCN(S(C)(=O)=O)CC4)cc3[nH]2)c1N` [Example 4-17-006, [5-amino-1-[2-fluoro-4-(2-fluorophenoxy)-6-methylphenyl]pyrazol-4-yl]-[5-(difluoromethoxy)-6-(1-methylsulfonylpiperidin-4-yl)-1H-indol-2-yl]methanone]: the IC50 on human Lck enzyme (setting [1]) is 13 nM; at human Yes1 enzyme (setting [1]) it was 3.4 nM; on human Src enzyme (setting [1]), 25 nM.
For `Cc1cc(Oc2c(F)cccc2F)ncc1-n1ncc(C(=O)c2cc3cc(F)c(NS(=O)(=O)c4cccc(Cl)n4)cc3[nH]2)c1N` [Example 5-1-528, N-[2-[5-amino-1-[6-(2,6-difluorophenoxy)-4-methylpyridin-3-yl]pyrazole-4-carbonyl]-5-fluoro-1H-indol-6-yl]-6-chloropyridine-2-sulfonamide], in that order: 230 nM, 8.8 nM and 750 nM.
The corresponding values for `Cc1cc(Oc2c(F)cccc2F)ncc1-n1ncc(C(=O)c2cc3cc(F)c(NS(=O)(=O)C4CC4)cc3[nH]2)c1N` [Example 4-2-044, N-[2-[5-amino-1-[6-(2,6-difluorophenoxy)-4-methylpyridin-3-yl]pyrazole-4-carbonyl]-5-fluoro-1H-indol-6-yl]cyclopropanesulfonamide] are 32 nM, 7 nM and 160 nM.
For the molecule `Cc1ccccc1Oc1cc(C)c(-n2ncc(C(=O)c3cc4cc(NS(C)(=O)=O)c(F)cc4[nH]3)c2N)cn1` [Example 5-1-047, N-[2-[5-amino-1-[4-methyl-6-(2-methylphenoxy)pyridin-3-yl]pyrazole-4-carbonyl]-6-fluoro-1H-indol-5-yl] methanesulfonamide], the figures for the IC50 at human Lck enzyme, on human Yes1 enzyme and at human Src enzyme were 5.1 nM, 0.87 nM and 15 nM, respectively.
With `Cc1cc(Oc2ccccc2F)ccc1-n1ncc(C(=O)c2cc3cc(NS(C)(=O)=O)c(F)cc3[nH]2)c1N` [Example 4-2-097, N-[2-[5-amino-1-[4-(2-fluorophenoxy)-2-methylphenyl]pyrazole-4-carbonyl]-6-fluoro-1H-indol-5-yl]methanesulfonamide], the IC50 at human Lck enzyme (setting [1]) was determined as 1.8 nM; at human Yes1 enzyme (setting [1]), 0.28 nM; at human Src enzyme (setting [1]), 8.1 nM.
As for `Cc1cc(Oc2c(F)cccc2F)ncc1-n1ncc(C(=O)c2cc3cc(OC(F)F)c(N)cc3[nH]2)c1N` [Example 5-1-074, [6-amino-5-(difluoromethoxy)-1H-indol-2-yl]-[5-amino-1-[6-(2,6-difluorophenoxy)-4-methylpyridin-3-yl]pyrazol-4-yl]methanone], the IC50 on human Lck enzyme worked out at 3.2 nM; on human Yes1 enzyme it was 1.6 nM; at human Src enzyme it was 25 nM.
Regarding `COc1cc2cc(C(=O)c3cnn(-c4ccc(Oc5cccc(F)c5F)cc4C)c3N)[nH]c2cc1NS(C)(=O)=O` [Example 4-1-005, N-[2-[5-amino-1-[4-(2,3-difluorophenoxy)-2-methylphenyl]pyrazole-4-carbonyl]-5-methoxy-1H-indol-6-yl]methanesulfonamide], the IC50 on human Lck enzyme (setting [1]) was 7.8 nM; at human Yes1 enzyme (setting [1]) it was 1 nM; at human Src enzyme (setting [1]), 63 nM.
With `Cc1cc(Oc2ccccc2F)ccc1-n1ncc(C(=O)c2cc3cc(OCC(F)F)c(NC(=O)OCC4c5ccccc5-c5ccccc54)cc3[nH]2)c1N` [Example 5-1-279, 9H-fluoren-9-ylmethyl N-[2-[5-amino-1-[4-(2-fluorophenoxy)-2-methylphenyl]pyrazole-4-carbonyl]-5-(2,2-difluoroethoxy)-1H-indol-6-yl] carbamate], the IC50 at human Lck enzyme worked out at 170 nM; on human Yes1 enzyme, 14 nM; at human Src enzyme, 910 nM.
Turning to `Cc1cc(Oc2ccccc2F)ccc1-n1ncc(C(=O)c2cc3cc(OCCN4C[C@@H]5C[C@H]4CN5S(C)(=O)=O)c(NS(C)(=O)=O)cc3[nH]2)c1N` [Example 4-24-038, N-[2-[5-amino-1-[4-(2-fluorophenoxy)-2-methylphenyl]pyrazole-4-carbonyl]-5-[2-[(1S,4S)-2-methylsulfonyl-2,5-diazabicyclo[2.2.1]heptan-5-yl]ethoxy]-1H-indol-6-yl]methanesulfonamide], the IC50 at human Lck enzyme (setting [1]) stood at 2.9 nM; on human Yes1 enzyme (setting [1]) it was 0.55 nM; at human Src enzyme (setting [1]), 6.9 nM.
For the molecule `Cc1cc(Oc2cccc(F)c2F)cc(F)c1-n1ncc(C(=O)c2cc3cc(Cl)c(NS(C)(=O)=O)cc3[nH]2)c1N` [Example 4-2-080, N-[2-[5-amino-1-[4-(2,3-difluorophenoxy)-2-fluoro-6-methylphenyl]pyrazole-4-carbonyl]-5-chloro-1H-indol-6-yl]methanesulfonamide], the IC50 at human Lck enzyme (setting [1]) is 68 nM; at human Yes1 enzyme (setting [1]), 12 nM; on human Src enzyme (setting [1]), 170 nM.
